Counter-ions that a name gives are not always drawn.
Assays:
mouse splenocytes = assay: Activin A and BAFF expression in mouse splenocytes; format: cell-based; conditions: low dose P4N
Method: FIGS. 14A-14C depict P4N-induced mouse B cell proliferation via the Activin A/BAFF pathway. (A) The proliferation of P4N-treated splenocytes. Splenocytes isolated from three mice were individually treated with increasing concentrations of P4N for 48 h and their proliferation was analyzed by MTT assay. The data are reported as the proliferation index. […] (B) The proliferation of B cells in mouse splenocytes treated with low doses of P4N. After treatment with P4N for 48 h, B-cells were identified by CD19 surface marker staining and the cell number was calculated following a flow cytometer analysis. […] Levels of Activin A and BAFF transcripts were measured by RT-PCR. Each sample obtained from 3 different mice; N, no treatment; P, P4N-treatment.
Reverse transcription PCR. Human PBMCs or THP-1 cells were treated with P4N, and then the mRNA expression of INHBA and BAFF in these cells was measured by reverse transcription PCR. Briefly, total cellular RNA was extracted with Trizol reagent (Invitrogen) and reverse-transcribed into cDNA using the Superscript RT-kit (Invitrogen). The cDNA of INHBA and BAFF were then amplified by PCR. GAPDH cDNA in the samples was used to normalize the loading amounts in each reaction. Finally, PCR products were resolved by electrophoresis on 2% agarose gels and visualized with ethidium bromide.

LTA4H = molecular target: T1, LTA4H (Homo sapiens, UniProt P09960); assay: LTB4 ELISA in THP-1 culture media; format: cell-based; conditions: THP-1, 3 μM P4N
T1 construct: THP-1 cells (1×10^6 cells/ml/well) in a 24-well culture plate; endogenous in cells; host or cells: THP-1 cells (BCRC, Hsinchu, Taiwan)
T1 sequence (P09960 1-611): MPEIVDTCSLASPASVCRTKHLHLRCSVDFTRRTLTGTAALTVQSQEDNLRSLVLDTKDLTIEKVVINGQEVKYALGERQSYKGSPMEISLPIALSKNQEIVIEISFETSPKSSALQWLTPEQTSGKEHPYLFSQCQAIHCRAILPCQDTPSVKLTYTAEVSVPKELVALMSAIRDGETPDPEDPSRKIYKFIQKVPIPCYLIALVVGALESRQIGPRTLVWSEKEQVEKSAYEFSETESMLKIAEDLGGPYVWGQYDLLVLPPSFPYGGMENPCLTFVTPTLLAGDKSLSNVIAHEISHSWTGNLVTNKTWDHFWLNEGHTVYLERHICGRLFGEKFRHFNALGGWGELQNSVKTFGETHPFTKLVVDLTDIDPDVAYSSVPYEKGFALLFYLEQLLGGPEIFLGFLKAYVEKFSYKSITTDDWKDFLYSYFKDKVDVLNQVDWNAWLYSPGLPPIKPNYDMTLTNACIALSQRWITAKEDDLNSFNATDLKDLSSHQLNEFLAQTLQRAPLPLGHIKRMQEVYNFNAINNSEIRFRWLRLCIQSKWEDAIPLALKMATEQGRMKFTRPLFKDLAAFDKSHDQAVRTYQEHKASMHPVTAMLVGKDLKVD
Method: ELISA assays. THP-1 cells (1×10^6 cells/ml/well) in a 24-well culture plate were pretreated with 10 μM bestatin (a LTA4H inhibitor, Sigma-Aldrich) for 2 h and then treated with 3 μM P4N for various time intervals. The levels of LTB4 in the culture media were determined by the LTB4 (Enzo Life Sciences, Farmingdale, N.Y.) (R&D) ELISA Kits. The amount of TNF-α, IL-8 and Activin A in cultured media were measured in a similar manner.

CT26 tumors [1] = assay: P4N in B cell or CD8+ T cell depleted mice bearing CT26 tumors; format: in vivo, BALB/c mice; conditions: 5 mg/kg intratumoral every week
Method: FIGS. 1A-1C illustrate the antitumor effects of low dose P4N in immune competent and deficient mice. (A) BALB/c (n=10/group) and nude mice (n=10/group) bearing CT26 tumors were treated with a single intratumoral injection of 2.5 or 5 mg/kg of P4N N. (B) B cell or CD8+ T cell depleted BALB/c mice (n=9/group) bearing CT26 tumors were treated with 5 mg/kg of P4N by intratumoral injection every week. Tumor volumes were measured every 2 days after treatments. Significant differences between the P4N groups and the PBS group were identified and labeled with *:p<0.05 and **:p<0.01. (C) Immunohistochemistry staining was used to monitor the infiltrations of macrophage (F4/80), DC (CD11c), T (CD3) and B cells (CD20) in the tumor area after a single intratumoral injection of PBS or 5 mg/kg of P4N. The photos are representative of the mice sacrificed on day 7 after the treatments.
P4N treatments in vivo. BALB/c or BALB/c/nu mice (6 week old) were inoculated subcutaneously with 1×10^6 CT-26 cells in 100 μl PBS. When the average tumor mass reached 50 mm^3, the animals were treated with 2.5 mg/kg or 5 mg/kg of P4N in one intratumoral injection. Subsequently, the tumor volumes were measured using a caliper every 2 days, and the volumes were calculated using the following formula: volume (mm^3)=length×width×height. Before sacrifice, the sera of the mice were collected for experimental use. […]

CT26 tumors [2] = assay: P4N treatments in vivo, CT-26 tumors in nude mice; design: species or system nude mice (BALB/c/nu); conditions: immunodeficient nude mice, one intratumoral injection of 2.5 mg/kg or 5 mg/kg
Method: P4N treatments in vivo. BALB/c or BALB/c/nu mice (6 week old) were inoculated subcutaneously with 1×10^6 CT-26 cells in 100 μl PBS. When the average tumor mass reached 50 mm^3, the animals were treated with 2.5 mg/kg or 5 mg/kg of P4N in one intratumoral injection. Subsequently, the tumor volumes were measured using a caliper every 2 days, and the volumes were calculated using the following formula: volume (mm^3)=length×width×height. Before sacrifice, the sera of the mice were collected for experimental use.

With C[C@H](Cc1ccc(OCCN2CCCCC2)c(OCCN2CCCCC2)c1)[C@@H](C)Cc1ccc(OCCN2CCCCC2)c(OCCN2CCCCC2)c1 [P4N, meso-2,3-dimethyl-1,4-bis(3,4-[2-(piperidino)ethoxyphenyl])butane tetrakishydrochloride salt] the “gene expression and protein production of Activin A and BAFF” value (mouse splenocytes) was “increase their gene expression and protein production”, the “production of LTA4H reaction product LTB4” value (LTA4H) was “increased the production” and the “P4N-induced tumor inhibition under B cell-depletion” value (CT26 tumors [1]; B cell depleted) was “abolished the effect of P4N-induced tumor inhibition”. For the same compound, the “P4N-induced tumor inhibition under CD8+ T cell-depletion” value (CT26 tumors [1]; CD8+ T cell depleted) was “only attenuated the effect of P4N-induced tumor inhibition” and the “growth of CT26 tumors” value (CT26 tumors [2]) was “had no effect”.

From patent US20190111040A1, “IN VIVO AMELIORATION OF ENDOGENOUS ANTI-TUMOR AUTOANTIBODIES TARGETING SURFACE TUMOR ANTIGENS VIA LOW-DOSE P4N” (THE JOHNS HOPKINS UNIVERSITY, priority 2016, published 2019)
